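Five compound concentrations were applied to cells in 96-well plates for 48 hours; endpoints were derived by simple linear interpolation of the resulting dose-response curve. At the GI50, growth is halved.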 Calls of active or inactive are those of the source. No stated cut-off is given here; in the data, active = GI50 up to about 1.1 µM and inactive = higher.
What was measured:
Experiment in all cases: inhibition of tumour cell growth, NCI panel, 48 h
OVCAR-3 = system: OVCAR-3
RPMI-8226 = system: RPMI-8226
NCI/ADR-RES = system: NCI/ADR-RES
SN12C = system: SN12C
HL-60 = system: HL-60
HCT-15 = system: HCT-15
NCI-H460 = system: NCI-H460
SW-620 = system: SW-620
U-251 = system: U-251
OVCAR-4 = system: OVCAR-4
MOLT-4 = system: MOLT-4
RXF 393 = system: RXF 393
LOX IMVI = system: LOX IMVI
MCF7 = system: MCF7
SF-295 = system: SF-295
SF-539 = system: SF-539
TK-10 = system: TK-10
MDA-MB-435 = system: MDA-MB-435
T47D = system: T47D

SMILES | GI50 (OVCAR-3) | GI50 (RPMI-8226) | GI50 (NCI/ADR-RES) | GI50 (SN12C) | GI50 (HL-60) | GI50 (HCT-15) | GI50 (NCI-H460) | GI50 (SW-620) | GI50 (U-251) | GI50 (OVCAR-4) | GI50 (MOLT-4) | GI50 (RXF 393) | GI50 (LOX IMVI) | GI50 (MCF7) | GI50 (SF-295) | GI50 (SF-539) | GI50 (TK-10) | GI50 (MDA-MB-435) | GI50 (T47D)
CC1C(=O)C(C)C(c2ccco2)N(N=O)C1c1ccco1 (configuration not stated) | > 100 µM (inactive) | > 100 µM (inactive) | > 100 µM (inactive) | > 100 µM (inactive) | > 100 µM (inactive) | > 100 µM | > 100 µM (inactive) | > 100 µM (inactive) | > 100 µM (inactive) | > 100 µM (inactive) | > 100 µM (inactive) | > 100 µM (inactive) | > 100 µM (inactive) | > 100 µM (inactive) | > 100 µM (inactive) | > 100 µM (inactive) | – | – | –
CCOc1ccccc1N1C(=O)C(=O)C(c2nc3ccccc3o2)/C(=N\N)C1=O (configuration not stated) | > 100 µM (inactive) | > 100 µM (inactive) | – | > 100 µM (inactive) | > 100 µM (inactive) | > 100 µM | – | > 100 µM (inactive) | > 100 µM (inactive) | 27.1 µM (inactive) | – | > 100 µM (inactive) | > 100 µM (inactive) | – | > 100 µM (inactive) | > 100 µM (inactive) | 56.5 µM (inactive) | – | –
CC1=C2C(O)C(C(C)C(=O)N(C)C)CCC2(C)C=CC1=O (configuration not stated) | > 100 µM (inactive) | > 100 µM (inactive) | > 100 µM (inactive) | > 100 µM (inactive) | > 100 µM (inactive) | > 100 µM | > 100 µM (inactive) | > 100 µM (inactive) | > 100 µM (inactive) | > 100 µM (inactive) | > 100 µM (inactive) | > 100 µM (inactive) | > 100 µM (inactive) | > 100 µM (inactive) | > 100 µM (inactive) | > 100 µM (inactive) | – | – | –
O=c1[nH]cnc(NC2C=C(CO)C(O)C2O)c1[N+](=O)[O-] (configuration not stated) | > 100 µM (inactive) | > 45.9 µM (inactive) | – | > 100 µM (inactive) | > 37.2 µM (inactive) | > 40.3 µM | > 40.1 µM (inactive) | > 43.2 µM (inactive) | > 63.5 µM (inactive) | > 100 µM (inactive) | > 100 µM (inactive) | > 100 µM (inactive) | > 41.2 µM (inactive) | – | > 100 µM (inactive) | > 100 µM (inactive) | > 100 µM (inactive) | – | –
CC1(C=O)C(=O)CCC2(C)C3CC(=O)OC3CCC12 (configuration not stated) | > 100 µM (inactive) | > 100 µM (inactive) | – | > 100 µM (inactive) | > 100 µM (inactive) | > 100 µM | > 100 µM (inactive) | > 100 µM (inactive) | > 100 µM (inactive) | > 100 µM (inactive) | > 100 µM (inactive) | > 100 µM (inactive) | > 100 µM (inactive) | – | > 100 µM (inactive) | > 100 µM (inactive) | > 100 µM (inactive) | – | –
COC(=O)C1C(=O)CC2CCCCC21 (configuration not stated) | > 100 µM (inactive) | > 100 µM (inactive) | – | > 100 µM (inactive) | > 100 µM (inactive) | > 100 µM | > 100 µM (inactive) | > 100 µM (inactive) | > 100 µM (inactive) | > 100 µM (inactive) | > 100 µM (inactive) | > 100 µM (inactive) | – | – | – | > 100 µM (inactive) | > 100 µM (inactive) | – | –
CN(/N=C/c1cccc2cccnc12)c1c([N+](=O)[O-])cc([N+](=O)[O-])cc1[N+](=O)[O-] | > 100 µM (inactive) | > 100 µM (inactive) | – | > 100 µM (inactive) | 5.82 µM (inactive) | 13.2 µM | > 100 µM (inactive) | > 100 µM (inactive) | > 100 µM (inactive) | > 100 µM (inactive) | 11.4 µM (inactive) | > 100 µM (inactive) | 45.3 µM (inactive) | – | > 100 µM (inactive) | > 100 µM (inactive) | > 100 µM (inactive) | – | –
Cc1ccccc1NC(=O)C1C(=O)N(c2ccccc2C)C(=O)/C1=N\N (configuration not stated) | > 100 µM (inactive) | > 100 µM (inactive) | – | > 100 µM (inactive) | > 100 µM (inactive) | > 100 µM | > 100 µM (inactive) | > 100 µM (inactive) | > 100 µM (inactive) | > 100 µM (inactive) | > 100 µM (inactive) | > 100 µM (inactive) | > 100 µM (inactive) | – | > 100 µM (inactive) | > 100 µM (inactive) | – | – | –
O=C(O)c1ccc(C2COc3ccc(Cl)cc3C2)cc1 (configuration not stated) | > 100 µM (inactive) | > 100 µM (inactive) | – | > 100 µM (inactive) | > 100 µM (inactive) | > 100 µM | > 100 µM (inactive) | > 100 µM (inactive) | > 100 µM (inactive) | – | > 100 µM (inactive) | > 100 µM (inactive) | > 100 µM (inactive) | – | > 100 µM (inactive) | > 100 µM (inactive) | > 100 µM (inactive) | – | –
CC(NC(=O)OC(C)(C)C)C(=O)NC1CCCC1 (configuration not stated) | > 100 µM (inactive) | > 100 µM (inactive) | > 100 µM (inactive) | > 100 µM (inactive) | > 100 µM (inactive) | – | > 100 µM (inactive) | > 100 µM (inactive) | – | > 100 µM (inactive) | > 100 µM (inactive) | > 100 µM (inactive) | > 100 µM (inactive) | > 100 µM (inactive) | > 100 µM (inactive) | – | > 100 µM (inactive) | > 100 µM (inactive) | –
O=C(/C=C/c1ccccc1O)c1cccc2ccccc12 | 30.2 µM (inactive) | 20.3 µM (inactive) | – | 44.4 µM (inactive) | 27.9 µM (inactive) | 23.7 µM | > 84.1 µM (inactive) | > 28.1 µM (inactive) | 42.3 µM (inactive) | 56.8 µM (inactive) | 21.1 µM (inactive) | 43.2 µM (inactive) | > 53.5 µM (inactive) | – | > 100 µM (inactive) | 76.4 µM (inactive) | > 100 µM (inactive) | – | –
CC(C)c1ccc(/C=C2\CSCC3=C2N=C2SCC(=O)N2C3c2ccc(C(C)C)cc2)cc1 (configuration not stated) | > 100 µM (inactive) | 80.7 µM (inactive) | > 100 µM (inactive) | 92.7 µM (inactive) | > 100 µM (inactive) | > 100 µM | > 100 µM (inactive) | > 100 µM (inactive) | 64.3 µM (inactive) | > 100 µM (inactive) | 75.5 µM (inactive) | – | > 100 µM (inactive) | > 100 µM (inactive) | > 100 µM (inactive) | > 100 µM (inactive) | > 100 µM (inactive) | > 100 µM (inactive) | 57.9 µM (inactive)
CC1=C(C(=O)Nc2ccccc2C)C(c2ccc(C3C(C(=O)Nc4ccccc4C)=CNC=C3C(=O)Nc3ccccc3C)cc2)C(C(=O)Nc2ccccc2C)=C(C)N1 | 20.3 µM (inactive) | 15.8 µM (inactive) | – | 14.8 µM (inactive) | 8 µM (inactive) | 16.8 µM | 21.4 µM (inactive) | 14.6 µM (inactive) | 12.2 µM (inactive) | 14.7 µM (inactive) | 4.5 µM (inactive) | 47.2 µM (inactive) | 7.08 µM (inactive) | – | 19.3 µM (inactive) | 14.4 µM (inactive) | 49.7 µM (inactive) | – | –
OC(c1cc2ccccc2[nH]1)C(O)(c1cc2ccccc2[nH]1)c1cc2ccccc2[nH]1 (configuration not stated) | 4.28 µM (inactive) | 7.11 µM (inactive) | – | 5.53 µM (inactive) | 7.91 µM (inactive) | 10 µM | 14.4 µM (inactive) | 10.1 µM (inactive) | 25.8 µM (inactive) | – | 8.07 µM (inactive) | 7.18 µM (inactive) | 10.8 µM (inactive) | – | 7.23 µM (inactive) | 41.4 µM (inactive) | 40.1 µM (inactive) | – | –
CC(=O)OC12c3ccccc3-c3ccccc3C1C(C(=O)O)C2C(=O)O (configuration not stated) | > 10 µM (inactive) | > 10 µM (inactive) | > 10 µM (inactive) | > 10 µM (inactive) | > 10 µM (inactive) | > 10 µM | > 10 µM (inactive) | > 10 µM (inactive) | > 10 µM (inactive) | > 10 µM (inactive) | > 10 µM (inactive) | > 10 µM (inactive) | > 10 µM (inactive) | > 10 µM (inactive) | > 10 µM (inactive) | > 10 µM (inactive) | > 10 µM (inactive) | 3.52 µM (inactive) | > 10 µM (inactive)
O=C1/C(=C/c2ccc(Br)cc2)CCC/C1=C\c1ccc(Br)cc1 | 4.08 µM (inactive) | 2.04 µM (inactive) | – | 19.7 µM (inactive) | 3.18 µM (inactive) | 5.13 µM | 10.5 µM (inactive) | 5.13 µM (inactive) | 7.05 µM (inactive) | 10.1 µM (inactive) | 7.11 µM (inactive) | 5.14 µM (inactive) | – | – | – | 16 µM (inactive) | 27.5 µM (inactive) | – | –
C=C1C(=O)O[C@@H]2[C@H]1CCC(C)=C1C=CC(=O)[C@]12C | 16.7 µM (inactive) | 6.67 µM (inactive) | – | 12.6 µM (inactive) | 3.3 µM (inactive) | – | 19.4 µM (inactive) | 6.21 µM (inactive) | 22.4 µM (inactive) | – | 10.9 µM (inactive) | 14.4 µM (inactive) | – | – | 17 µM (inactive) | 15.5 µM (inactive) | 23 µM (inactive) | – | –
CCC1(c2ccncc2)CCC(=O)NC1=O (configuration not stated) [ROGLETIMIDE] | > 100 µM (inactive) | > 100 µM (inactive) | – | > 100 µM (inactive) | > 100 µM (inactive) | > 100 µM | > 100 µM (inactive) | > 100 µM (inactive) | > 100 µM (inactive) | > 100 µM (inactive) | > 100 µM (inactive) | > 100 µM (inactive) | > 100 µM (inactive) | – | > 100 µM (inactive) | > 100 µM (inactive) | > 100 µM (inactive) | – | –

From ChEMBL document CHEMBL1201862, “PubChem BioAssay data set” (2004)
